Here are results for 18 compounds from PMC4885109, “Rapid Discovery and Structure–Activity Relationships of Pyrazolopyrimidines That Potently Suppress Breast Cancer Cell Growth via SRC Kinase Inhibition with Exceptional Selectivity over ABL Kinase” (Journal of Medicinal Chemistry, 2016).

One data set concerns the target FGR (Homo sapiens, UniProt P09769). Kind of data set: Kinase screening assay, 33P radioisotope (Reaction Biology). The format is biochemical.
For the next data set, the target named is LCK (Homo sapiens, UniProt P06239). The description is as above. The format is biochemical. The conditions noted are these: recombinant kinase, 10 μM ATP.
Another data set deals with FRK/PTK5 (Homo sapiens, UniProt P42685). Put plainly: biochemical.
A further data set concerns the target HCK (Homo sapiens, UniProt P08631). Put plainly: biochemical.
The next data set addresses LYN (Homo sapiens, UniProt P07948). Put plainly: biochemical.
Data set [1] deals with MDA-MB-231 cells. Put plainly: Dose-response viability assay (PrestoBlue), MDA-MB-231. The format is cell-based, human. The conditions noted are these: for decrease in antiproliferative activity relative to 11a: MDA-MB-231.
Data set [2] has as its system SYF murine embryonic fibroblasts (SRC-/-, YES-/-, FYN-/-). Put plainly: Dose-response proliferation study in SYF cells. The format is cell-based, mouse. The conditions noted are these: compared with dasatinib.
Another data set has as its target ABL (Homo sapiens, UniProt P00519). Kind of data set: Kinase screening assay, 33P radioisotope (Reaction Biology).
Another data set addresses SRC (Homo sapiens, UniProt P12931). The description is as above.
Data set [3] relates to phospho-SRC^Y416 and phospho-FAK in MDA-MB-231 cells.
The subject of data set [4] is MCF7 cells.
A further data set has as its target CYP3A4 (Homo sapiens, UniProt P08684). The conditions noted are these: 10 μM.
In another data set the target is CYP2C9 (Homo sapiens, UniProt P11712). The conditions noted are these: 10 μM.
The next data set concerns the target CYP2D6 (Homo sapiens, UniProt P10635). The conditions noted are these: 10 μM.
Another data set is described as follows: in vivo. The conditions noted are these: female, CD1, mouse, blood/plasma, 10 mg/kg.
A further data set is described as follows: physchem. The conditions noted are these: pH 7.4.
A short description of data set [5]: in vitro. The conditions noted are these: human, cryopreserved pooled primary hepatocytes.
Data set [6] in a line: in vitro. The conditions noted are these: mouse, cryopreserved pooled primary hepatocytes.
Another data set has as its target T1, CYP1A2 (Homo sapiens, UniProt P05177).
T1 sequence (P05177 1-516): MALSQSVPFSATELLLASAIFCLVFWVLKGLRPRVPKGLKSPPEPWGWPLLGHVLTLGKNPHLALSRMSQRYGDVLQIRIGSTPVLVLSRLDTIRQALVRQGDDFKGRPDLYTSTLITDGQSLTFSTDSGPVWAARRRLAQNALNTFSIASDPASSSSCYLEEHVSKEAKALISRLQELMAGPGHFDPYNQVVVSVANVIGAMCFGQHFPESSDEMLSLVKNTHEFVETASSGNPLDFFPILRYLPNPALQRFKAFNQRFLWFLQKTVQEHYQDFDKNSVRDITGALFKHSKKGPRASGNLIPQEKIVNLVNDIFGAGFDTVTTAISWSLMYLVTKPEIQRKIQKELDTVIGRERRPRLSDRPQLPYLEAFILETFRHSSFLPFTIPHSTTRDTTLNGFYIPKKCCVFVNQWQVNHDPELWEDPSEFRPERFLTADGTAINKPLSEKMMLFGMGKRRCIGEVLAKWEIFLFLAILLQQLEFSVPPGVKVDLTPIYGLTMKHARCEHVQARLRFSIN
The conditions noted are these: 10 μM.

In a further data set the target is CYP2C19 (Homo sapiens, UniProt P33261). The conditions noted are these: 10 μM.
The target in another data set is BLK (Homo sapiens, UniProt P51451). Put plainly: biochemical.
In data set [7] the test system is MCF7 cells. Put plainly: Time-lapse cell growth assay (IncuCyte ZOOM). The class given is cell-based, human. The conditions noted are these: for antiproliferative mode of action by time-lapse imaging: 1–100 μM.
For data set [8], the system named is Tg(brn3c:mGFP) zebrafish embryos. The format is in vivo. The conditions noted are these: 1–10 μM (compatible with embryo survival).
Data set [9] deals with MDA-MB-231 cells. Kind of data set: cells. The conditions noted are these: Homo sapiens, MDA-MB-231, 24 h, read-out: IC50, MDA-MB-231 Cell Migration After 24h.
The conditions of data set [10]: cited from earlier work.
For data set [11] the following is noted: cited from earlier work; for % F / Cmax / Tmax: PO.
The test system of data set [12] is MCF7 cells. Put plainly: Dose-response viability assay (PrestoBlue), MCF7. The conditions noted are these: Homo sapiens, MCF7, 120 h; 5 d, PrestoBlue cell viability. The format is cell-based.
The conditions of data set [13]: human, rat, 24 h.
The mark [14] stands for this setting: recombinant kinase, 10 μM ATP, read-out: IC50 (FGR).
[15] abbreviates: 5 mg/kg ref Kamath et al., 2008.

Read-outs that look alike come from different tables or passages of the source. A value given as a limit tells only on which side of the number the result lay.

FRK/PTK5, sequence (P42685 whole entry): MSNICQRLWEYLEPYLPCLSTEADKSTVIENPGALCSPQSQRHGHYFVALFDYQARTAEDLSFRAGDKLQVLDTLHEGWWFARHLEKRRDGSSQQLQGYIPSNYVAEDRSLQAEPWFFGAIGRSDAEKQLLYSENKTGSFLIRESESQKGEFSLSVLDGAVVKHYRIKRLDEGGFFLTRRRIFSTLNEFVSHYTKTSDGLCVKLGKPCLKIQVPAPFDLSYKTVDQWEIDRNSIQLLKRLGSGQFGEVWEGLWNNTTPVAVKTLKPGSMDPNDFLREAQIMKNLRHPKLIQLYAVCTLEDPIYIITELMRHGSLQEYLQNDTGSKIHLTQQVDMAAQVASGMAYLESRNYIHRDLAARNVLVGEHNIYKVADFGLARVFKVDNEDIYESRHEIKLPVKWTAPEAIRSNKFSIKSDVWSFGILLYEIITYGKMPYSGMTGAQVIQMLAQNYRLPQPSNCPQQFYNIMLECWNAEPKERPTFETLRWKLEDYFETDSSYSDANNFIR
HCK, sequence (P08631 whole entry): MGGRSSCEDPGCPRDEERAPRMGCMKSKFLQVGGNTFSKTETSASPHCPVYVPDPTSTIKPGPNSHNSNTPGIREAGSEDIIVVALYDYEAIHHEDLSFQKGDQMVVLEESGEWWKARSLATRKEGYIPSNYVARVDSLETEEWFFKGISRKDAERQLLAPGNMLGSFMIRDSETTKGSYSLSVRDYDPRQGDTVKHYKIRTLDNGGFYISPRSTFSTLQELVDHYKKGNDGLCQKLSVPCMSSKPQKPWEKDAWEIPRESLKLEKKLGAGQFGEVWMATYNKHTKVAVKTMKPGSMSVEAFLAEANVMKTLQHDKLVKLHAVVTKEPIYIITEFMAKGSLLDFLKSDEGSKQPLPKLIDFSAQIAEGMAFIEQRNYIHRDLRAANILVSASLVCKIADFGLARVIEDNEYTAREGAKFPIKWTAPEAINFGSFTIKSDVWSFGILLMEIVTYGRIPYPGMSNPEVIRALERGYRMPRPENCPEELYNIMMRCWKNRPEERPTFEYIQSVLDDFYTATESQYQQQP
LYN, sequence (P07948 whole entry): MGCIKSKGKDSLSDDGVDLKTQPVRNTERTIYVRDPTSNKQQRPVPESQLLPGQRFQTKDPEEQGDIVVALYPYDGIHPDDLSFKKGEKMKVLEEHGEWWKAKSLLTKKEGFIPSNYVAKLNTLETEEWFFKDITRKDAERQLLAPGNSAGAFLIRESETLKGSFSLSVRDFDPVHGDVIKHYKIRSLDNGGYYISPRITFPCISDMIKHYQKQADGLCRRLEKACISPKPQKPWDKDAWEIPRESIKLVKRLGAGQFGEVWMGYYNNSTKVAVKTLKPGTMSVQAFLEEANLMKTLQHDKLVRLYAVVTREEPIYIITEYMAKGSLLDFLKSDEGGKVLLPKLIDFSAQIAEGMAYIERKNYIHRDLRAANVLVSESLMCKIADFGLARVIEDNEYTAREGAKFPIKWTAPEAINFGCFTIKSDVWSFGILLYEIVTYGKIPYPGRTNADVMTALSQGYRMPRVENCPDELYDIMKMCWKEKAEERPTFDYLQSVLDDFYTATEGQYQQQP
LCK, sequence (P06239 whole entry): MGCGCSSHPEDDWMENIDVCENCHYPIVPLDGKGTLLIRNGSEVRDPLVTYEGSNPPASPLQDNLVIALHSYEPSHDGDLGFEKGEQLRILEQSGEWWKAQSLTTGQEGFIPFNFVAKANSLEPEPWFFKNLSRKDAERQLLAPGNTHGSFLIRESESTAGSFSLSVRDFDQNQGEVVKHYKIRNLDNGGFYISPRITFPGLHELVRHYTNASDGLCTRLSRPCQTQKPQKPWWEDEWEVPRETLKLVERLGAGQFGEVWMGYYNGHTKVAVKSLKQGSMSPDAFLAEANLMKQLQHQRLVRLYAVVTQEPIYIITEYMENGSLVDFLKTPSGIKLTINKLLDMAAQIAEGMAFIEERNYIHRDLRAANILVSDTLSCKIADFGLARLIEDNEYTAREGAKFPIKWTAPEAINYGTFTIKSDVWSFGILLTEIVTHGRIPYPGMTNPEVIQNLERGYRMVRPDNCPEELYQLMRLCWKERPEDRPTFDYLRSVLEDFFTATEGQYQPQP
FGR, sequence (P09769 whole entry): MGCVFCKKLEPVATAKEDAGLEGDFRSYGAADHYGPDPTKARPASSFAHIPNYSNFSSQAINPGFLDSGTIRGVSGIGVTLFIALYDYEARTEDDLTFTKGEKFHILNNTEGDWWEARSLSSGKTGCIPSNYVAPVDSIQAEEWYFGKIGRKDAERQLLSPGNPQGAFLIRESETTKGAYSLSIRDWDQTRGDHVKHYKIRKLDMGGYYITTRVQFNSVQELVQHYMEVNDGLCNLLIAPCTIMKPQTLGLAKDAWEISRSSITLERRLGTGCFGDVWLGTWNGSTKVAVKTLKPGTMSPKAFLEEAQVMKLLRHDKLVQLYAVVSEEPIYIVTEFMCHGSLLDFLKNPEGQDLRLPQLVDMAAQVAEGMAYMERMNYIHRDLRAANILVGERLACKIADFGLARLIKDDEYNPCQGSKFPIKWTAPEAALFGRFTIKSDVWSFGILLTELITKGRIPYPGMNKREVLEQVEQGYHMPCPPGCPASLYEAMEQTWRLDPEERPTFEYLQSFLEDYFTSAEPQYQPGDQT
BLK, sequence (P51451 whole entry): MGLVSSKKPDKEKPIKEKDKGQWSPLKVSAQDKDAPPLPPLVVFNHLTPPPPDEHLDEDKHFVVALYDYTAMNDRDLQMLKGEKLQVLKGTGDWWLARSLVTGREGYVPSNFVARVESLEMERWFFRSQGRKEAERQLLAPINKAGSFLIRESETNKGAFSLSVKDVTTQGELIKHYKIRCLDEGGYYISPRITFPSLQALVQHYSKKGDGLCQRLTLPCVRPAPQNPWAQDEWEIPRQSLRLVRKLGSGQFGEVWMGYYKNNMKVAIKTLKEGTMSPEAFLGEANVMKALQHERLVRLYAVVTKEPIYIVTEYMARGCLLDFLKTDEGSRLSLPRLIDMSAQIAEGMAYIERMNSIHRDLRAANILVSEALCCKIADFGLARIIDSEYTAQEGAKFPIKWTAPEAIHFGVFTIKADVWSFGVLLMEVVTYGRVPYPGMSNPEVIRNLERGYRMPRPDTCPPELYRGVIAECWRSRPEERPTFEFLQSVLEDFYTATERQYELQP
CYP2C9, sequence (P11712 whole entry): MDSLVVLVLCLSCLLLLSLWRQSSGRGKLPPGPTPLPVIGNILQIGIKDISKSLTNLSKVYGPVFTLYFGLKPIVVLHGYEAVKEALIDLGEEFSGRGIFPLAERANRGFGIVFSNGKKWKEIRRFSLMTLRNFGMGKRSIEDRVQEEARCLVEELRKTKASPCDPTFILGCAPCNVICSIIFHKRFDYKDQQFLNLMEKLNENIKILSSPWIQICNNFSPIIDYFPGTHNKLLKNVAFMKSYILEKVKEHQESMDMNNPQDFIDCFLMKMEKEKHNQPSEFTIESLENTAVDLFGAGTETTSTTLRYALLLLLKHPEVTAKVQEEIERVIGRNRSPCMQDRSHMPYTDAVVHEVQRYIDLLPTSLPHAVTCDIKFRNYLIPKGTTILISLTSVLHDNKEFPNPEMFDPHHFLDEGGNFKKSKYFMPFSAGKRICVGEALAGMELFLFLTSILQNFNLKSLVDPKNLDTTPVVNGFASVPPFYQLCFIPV
CYP2D6, sequence (P10635 whole entry): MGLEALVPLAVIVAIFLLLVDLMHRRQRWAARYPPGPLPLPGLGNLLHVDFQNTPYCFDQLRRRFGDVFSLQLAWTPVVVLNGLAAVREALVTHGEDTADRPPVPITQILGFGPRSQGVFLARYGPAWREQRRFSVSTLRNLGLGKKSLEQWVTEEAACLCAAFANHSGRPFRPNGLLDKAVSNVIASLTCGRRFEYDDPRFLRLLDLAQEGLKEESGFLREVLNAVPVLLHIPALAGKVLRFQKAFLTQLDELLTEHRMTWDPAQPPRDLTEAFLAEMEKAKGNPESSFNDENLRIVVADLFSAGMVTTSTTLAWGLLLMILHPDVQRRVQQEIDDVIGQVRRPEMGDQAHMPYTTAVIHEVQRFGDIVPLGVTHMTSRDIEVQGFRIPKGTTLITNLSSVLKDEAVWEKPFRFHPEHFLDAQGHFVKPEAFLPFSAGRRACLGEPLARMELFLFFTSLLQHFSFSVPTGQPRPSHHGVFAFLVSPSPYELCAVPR
CYP3A4, sequence (P08684 whole entry): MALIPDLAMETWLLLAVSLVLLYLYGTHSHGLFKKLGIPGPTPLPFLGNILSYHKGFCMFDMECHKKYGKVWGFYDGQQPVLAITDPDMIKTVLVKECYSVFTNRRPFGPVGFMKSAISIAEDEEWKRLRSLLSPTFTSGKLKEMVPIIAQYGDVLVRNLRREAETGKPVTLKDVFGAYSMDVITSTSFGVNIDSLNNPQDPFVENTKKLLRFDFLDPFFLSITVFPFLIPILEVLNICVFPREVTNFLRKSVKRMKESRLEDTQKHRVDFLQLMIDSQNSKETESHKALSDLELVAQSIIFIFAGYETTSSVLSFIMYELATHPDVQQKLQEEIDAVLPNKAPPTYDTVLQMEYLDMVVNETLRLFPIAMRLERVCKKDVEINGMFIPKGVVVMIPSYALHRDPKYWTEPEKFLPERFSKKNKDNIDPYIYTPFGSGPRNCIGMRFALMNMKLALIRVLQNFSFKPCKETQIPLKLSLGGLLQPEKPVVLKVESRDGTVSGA

On to `Cc1ccc(-c2nn(CCN3CCC(CCN(C)C)CC3)c3ncnc(N)c23)cc1` [7k], for which the IC50 at FGR (setting [14]) worked out at 601 nM; on LCK, 4340 nM; at FRK/PTK5, 3700 nM; on HCK it was 11600 nM; against LYN it was 2510 nM.
As for `CN(C)C1CCN(CCn2nc(-c3ccc(NC(=O)OC(C)(C)C)nc3)c3c(N)ncnc32)CC1` [12u], in the data set with MDA-MB-231 cells [1] (read-out: EC50 (MDA-MB-231), 5 d, PrestoBlue cell viability), the EC50 is 16700 nM.
For the compound `COc1cc(-c2nn(CCN3CCC(CN(C)C)CC3)c3ncnc(N)c23)ccc1NC(=O)OC(C)(C)C` [11b], in data set [2], the “antiproliferative activity in SYF cells” value was “significantly less antiproliferative activity in SYF cells than dasatinib”. The same compound came in with an IC50 against ABL of 189 nM.
For the compound `CN(C)C1CCN(CCn2nc(-c3ccc(NC(=O)OC(C)(C)C)c(O)c3)c3c(N)ncnc32)CC1` [12s], the “decrease in antiproliferative activity relative to 11a” value in the data set on MDA-MB-231 cells [1] is on record as over 200 fold. Further, the “decrease in SRC inhibitory activity relative to 11a” value on SRC is over 200 fold.
With `COc1cc(-c2nn(CCN3CCC(N(C)C)CC3)c3ncnc(N)c23)ccc1NC(=O)OC(C)(C)C` [11a, tert-Butyl N-[4-[4-amino-1-[2-[4-(dimethylamino)-1-piperidyl]ethyl]pyrazolo[3,4-d]pyrimidin-3-yl]-2-methoxy-phenyl]carbamate], the “concentration with complete inhibition of phosphorylation of SRC and FAK” value in data set [3] is on record as 100 nM. Further, in the data set on MCF7 cells [4], the “concentration giving significant apoptotic cell death (caspase 3/7 activity)” value was at least 100 nM. Moreover, the “inhibition of CYP3A4” value against CYP3A4 is reported as at most 0%. Moreover, the “inhibition of CYP2C9” value on CYP2C9 is at most 0%. Besides, the “inhibition of CYP2D6” value against CYP2D6 is reported as at most 0%. Besides, in the data set “in vivo” (iv), the AUC was found to be 2070 ng·h/mL and the clearance was determined as 72.3 mL/min/kg. In addition, in “in vivo” (po), the exposure (AUC) amounted to 530 ng·h/mL, the Cmax stood at 100 ng/mL and the time of peak concentration (Tmax) was found to be 2 h. The compound also had a solubility in the data set “physchem” of over 100 mg/mL. The compound further had a hepatocyte CLint at 3 µM in the data set “in vitro [5]” of 1.84 µL/min/1e6 cells. Besides, in “in vitro [6]”, the half-life at 3 µM was found to be 1.83 h and the hepatocyte CLint at 3 µM was 12.5 µL/min/1e6 cells. Besides, the “inhibition of CYP1A2” value against CYP1A2 is 24.54%. The “inhibition of CYP2C19” value against CYP2C19 is given as at most 0%.
With `Cc1ccc(-c2nn(CCN3CCC(CN(C)C)CC3)c3ncnc(N)c23)cc1` [7j], the IC50 was determined as 1540 nM on LCK; 2850 nM against BLK; 1630 nM against FRK/PTK5; 6010 nM at HCK; 1070 nM against LYN.
Regarding `Cc1ccc(-c2nn(CCN3CCN(C)CC3)c3ncnc(N)c23)cc1` [7d], in the data set on MCF7 cells [7] (single dose 100 μM, 5 d, time-lapse imaging), the “cell proliferation (% confluence over time)” value was “strong inhibition of cell proliferation”.
`Cc1nc(Nc2ncc(C(=O)Nc3c(C)cccc3Cl)s2)cc(N2CCN(CCO)CC2)n1.O` [dasatinib]: the neuromast migration result in data set [8] was “did not inhibit the migration of neuromasts”. Also, the IC50 in the data set on MDA-MB-231 cells [9] was determined as 8.4 nM. The solubility in water in data set [10] (pH = 2.6 ref 56) was 18 mg/mL; in data set [10] (pH = 7 ref 56) it was under 0.001 mg/mL. For the same compound, in data set [11] (IV, 10 mg/kg, mice ref Kamath et al., 2008 (58)), the T1/2 was 0.9 h. Moreover, the CL in [11] (IV, 10 mg/kg, mice ref Kamath et al., 2008) is 61.7 mL/min/kg. Moreover, the “% F” value in data set [11] (setting [15]) is given as 17%; in [11] (5 mg/kg ref Luo et al., 2006), 45%. Moreover, the Cmax is 104 ng/mL in data set [11] (setting [15]) and 58 ng/mL in data set [11] (5 mg/kg ref Luo et al., 2006). Further, the Tmax in [11] (setting [15]) was 2 h; in data set [11] (5 mg/kg ref Luo et al., 2006), 1 h.
As to `COc1cc(-c2nn(CCN3CCC(N(C)C)CC3)c3ncnc(N)c23)ccc1N` [12g], the EC50 in the data set on MCF7 cells [12] was determined as 4930 nM.
As to `CC(=O)CC(c1ccccc1)c1c(O)c2ccccc2oc1=O` (stereo not drawn) [Warfarin], the plasma protein bound in data set [13] is given as 99–100%.
Regarding `Cc1ccc(-c2nn(C(C)(C)C)c3ncnc(N)c23)cc1` [PP1, reference compound], the IC50 against FGR was found to be 7.6 nM.
In the data set “in vitro [5]”, `O=c1ccc2ccc(O)cc2o1` [umbelliferone, reference compound] displayed a half-life at 3 µM of 9.7 min and a hepatocyte CLint at 3 µM of 150 µL/min/1e6 cells. For the same compound, in “in vitro [6]”, the half-life at 3 µM was 0.0233 h and the intrinsic clearance (hepatocyte CLint) at 3 µM amounted to 983 µL/min/1e6 cells.
For the compound `CCOC(Cn1nc(-c2cnc3[nH]ccc3c2)c2c(N)ncnc21)OCC` [8d, 1-(2,2-Diethoxyethyl)-3-(1H-pyrrolo[2,3-b]pyridin-5-yl)pyrazolo[3,4-d]pyrimidin-4-amine], the “antiproliferative mode of action by time-lapse imaging” value in the data set on MCF7 cells [7] is “halted cell division”. Besides, the IC50 amounted to 2130 nM at FGR (setting [14]); 8610 nM on LCK; 2690 nM on FRK/PTK5; 6770 nM against HCK; 2310 nM on LYN.
As to `Cc1ccc(-c2nn(CCN3CCC(N(C)C)CC3)c3ncnc(N)c23)cc1` [7i], the figures for the IC50 against BLK and against HCK were 1540 nM and 1520 nM, respectively.
On to `Cc1ccc(-c2nn(CCN3CCCCC3)c3ncnc(N)c23)cc1` [7a], for which, in the data set on MCF7 cells [12], the EC50 turned out to be 48800 nM.
Take `CN(C)CC1CCN(CCn2nc(-c3cnc4[nH]ccc4c3)c3c(N)ncnc32)CC1` [9d, 1-[2-[4-(Dimethylaminomethyl)-1-piperidyl]ethyl]-3-(1H-pyrrolo[2,3-b]pyridin-5-yl)pyrazolo[3,4-d]pyrimidin-4-amine]: in the data set with MCF7 cells [7], the “antiproliferative mode of action by time-lapse imaging” value was “induced cell death”.
Compound `COc1cc(-c2nn(CCN3CCC(N(C)C)CC3)c3ncnc(N)c23)ccc1NC(=O)CCc1ccccc1` [12k, N-[4-[4-amino-1-[2-[4-(dimethylamino)-1-piperidyl]ethyl]pyrazolo[3,4-d]pyrimidin-3-yl]-2-methoxy-phenyl]-3-phenyl-propanamide] had an EC50 in the data set with MCF7 cells [12] of 7040 nM.
Turning to `COc1cc(-c2ccn(CCN3CCC(N(C)C)CC3)n2)ccc1NC(=O)OC(C)(C)C` [12f], the “decrease in antiproliferative activity relative to 11a” value with MDA-MB-231 cells [1] was over 3000 fold.
